Laboratory results: patent publication US9708336B2, “Metallo-beta-lactamase inhibitors” (priority 2014, dated 2017)
Read-outs that look alike come from different tables or passages of the source.

Assays:
[1] = system: Serratia marcescens expressing IMP-1 (CL5741); experiment: Antibiotic potentiation activity: synergistic concentration (MITC95) with imipenem, OD600 growth; format: cell-based
How it was run: (§1)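 Each strain, suspended in saline from overnight colonies and diluted 1:100 into 1.1× CAMHB, is dosed with imipenem at 4 μg/ml (or 1 μg/ml) plus compound, incubated 22–24 h at 35 °C and read by absorbance.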

[2] = system: Klebsiella pneumoniae expressing VIM-1 (IHMA599644); experiment: as above; format: cell-based
How it was run: as §1

[3] = system: Escherichia coli expressing NDM-1 (CLB30016); experiment: as above; format: cell-based
How it was run: as §1

[4] = target: IMP-1 (Serratia marcescens, UniProt P52699); experiment: biochemical; format: biochemical
[5] = target: VIM-1 (Pseudomonas aeruginosa (strain ATCC 15692 / DSM 22644 / CIP 104116 / JCM 14847 / LMG 12228 / 1C / PRS 101 / PAO1), UniProt A0A0F7KYQ8); experiment: Enzyme activity: determination of IC50, fluorescence assay with CCF2-FA substrate (VIM-1); format: biochemical
[6] = target: NDM-1 (Klebsiella pneumoniae, UniProt C7C422); experiment: biochemical; format: biochemical
[7] = Serratia marcescens CL5741 (IMP-1), 95% growth inhibition
[8] = Klebsiella pneumoniae IHMA599644 (VIM-1), 95% growth inhibition
[9] = (CLB30016, NDM-1), 95% growth inhibition
[10] = IMP-1 enzyme, CCF2-FA substrate, read-out: IMP-1 IC50
[11] = VIM-1 IC50, VIM-1 enzyme, CCF2-FA substrate
[12] = NDM-1 enzyme, CCF2-FA substrate, read-out: NDM-1 IC50
[13] = Serratia marcescens expressing IMP-1 (CL5741), 95% growth inhibition
[14] = Klebsiella pneumoniae expressing VIM-1 (IHMA599644), 95% growth inhibition
[15] = Escherichia coli expressing NDM-1 (CLB30016), 95% growth inhibition
[16] = IMP-1 enzyme, CCF2-FA fluorescence assay, read-out: IMP-1 IC50
[17] = VIM-1 enzyme, CCF2-FA fluorescence assay, read-out: VIM-1 IC50
[18] = NDM-1 enzyme, CCF2-FA fluorescence assay, read-out: NDM-1 IC50
[19] = VIM-1 enzyme, CCF2-FA substrate, read-out: VIM-1 IC50
[20] = CL5741 (IMP-1), 95% inhibition of bacterial growth
[21] = IHMA599644 (VIM-1), 95% inhibition of bacterial growth
[22] = CLB30016 (NDM-1), 95% inhibition of bacterial growth
[23] = fluorescence assay with CCF2-FA substrate, read-out: IMP-1 IC50
[24] = fluorescence assay with CCF2-FA substrate, read-out: NDM-1 IC50

NDM-1, sequence (C7C422 whole entry, looked up, species assumed): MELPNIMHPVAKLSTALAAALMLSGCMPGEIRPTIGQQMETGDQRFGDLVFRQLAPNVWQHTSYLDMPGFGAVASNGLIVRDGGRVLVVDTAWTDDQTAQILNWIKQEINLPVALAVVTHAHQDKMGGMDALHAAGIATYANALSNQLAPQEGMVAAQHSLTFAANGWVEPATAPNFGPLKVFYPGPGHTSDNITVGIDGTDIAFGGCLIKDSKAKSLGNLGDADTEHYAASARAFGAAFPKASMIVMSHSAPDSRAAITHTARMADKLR
IMP-1, sequence (P52699 whole entry, looked up): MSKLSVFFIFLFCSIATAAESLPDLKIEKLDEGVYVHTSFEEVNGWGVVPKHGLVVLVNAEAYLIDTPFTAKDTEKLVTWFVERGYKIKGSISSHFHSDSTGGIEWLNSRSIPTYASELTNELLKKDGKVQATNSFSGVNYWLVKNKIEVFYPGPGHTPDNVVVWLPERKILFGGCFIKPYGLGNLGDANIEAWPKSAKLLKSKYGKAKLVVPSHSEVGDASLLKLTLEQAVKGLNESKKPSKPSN

Row | Structure (SMILES) | Serratia marcescens MITC95 [1, 7] [µM] | Klebsiella pneumoniae MITC95 [2, 8] [µM] | Escherichia coli MITC95 [3, 9] [µM] | IC50 [4, 10] [nM] | IC50 [6, 12] [nM] | Serratia marcescens MITC95 [1, 13] [µM] | Klebsiella pneumoniae MITC95 [2, 14] [µM] | Escherichia coli MITC95 [3, 15] [µM] | IC50 [4, 16] [nM] | IC50 [6, 18] [nM] | IC50 [5, 19] [nM] | also measured
1 | NS(=O)(=O)c1c(C(F)(F)F)ccc([C@H]2CC[C@H](NCC3CCCN3)CC2)c1-c1nnn[nH]1 (stereo partly drawn) [Example 681, 3-{4-[(pyrrolidin-2-ylmethyl)amino]cyclohex-yl}-2-(1H-tetrazol-5-yl)-6-(trifluoromethyl)benzene sulfonamide] | 3.125 | 6.25 | 1.563 | 16.1 | 8.72 |  |  |  |  |  |  | IC50 [5, 11]: 7.1 nM
2 | NS(=O)(=O)c1cccc(-c2ccc(OC3CCNCC3)cc2)c1-c1nnn[nH]1 [Example 316, 4′-(piperidin-4-yloxy)-2-(1H-tetrazol-5-yl)-[1,1′-biphenyl]-3-sulfonamide] |  |  |  |  |  | 2.344 | 12.5 | 0.9766 | 69.3 | 5.11 |  | IC50 [5, 17]: 67.7 nM
3 | NS(=O)(=O)c1cccc(-c2ccc(CNCC3(O)CCC3)cc2)c1-c1nnn[nH]1 [Example 376, 4′-({[(1-hydroxycyclobutyl)methyl]amino}methyl)-2-(1H-tetrazol-5-yl)biphenyl-3-sulfonamide] |  |  |  |  |  | 4.688 | 15.63 | 2.344 | 96.6 | 14.4 |  | IC50 ([5]; VIM-1 IC50, VIM-1 enzyme, CCF2-FA fluorescence assay): 50.4 nM
4 | Nc1ccc(-c2ccc(Br)c(S(N)(=O)=O)c2-c2nn[nH]n2)cn1 [Example 264, 3-(6-aminopyridin-3-yl)-6-bromo-2-(2H-tetrazol-5-yl)benzenesulfonamide] |  |  |  |  |  | 0.3828 | 1.781 | 0.04688 | 16.9 | 4.61 |  | IC50 [5, 17]: 4.4 nM
5 | Nc1ccnc2cc(-c3cccc(S(N)(=O)=O)c3-c3nnn[nH]3)ccc12 [Example 412, 3-(4-amino-7-quinolyl)-2-(1H-tetrazol-5-yl)benzenesulfonamide] |  |  |  |  |  | 25 | 3.125 | 0.3906 | 1390 | 25.9 |  | IC50 [5, 17]: 25.8 nM
6 | Nc1ccc(CN[C@H]2CC[C@H](c3ccc(C(F)(F)F)c(S(N)(=O)=O)c3-c3nnn[nH]3)CC2)cn1 [Example 682, 3-(4-{[(6-aminopyridin-3-yl)methyl]amino}cyclohex-yl)-2-(1H-tetrazol-5-yl)-6-(trifluoromethyl)benzene sulfonamide] | 6.25 | 12.5 | 6.25 |  |  |  |  |  |  |  | 0.684 | IC50 [4]: 27.4 nM; IC50 [6]: 4.12 nM
7 | NS(=O)(=O)c1cccc(-c2ccc(CNC3CCN(C4CCCC4)CC3)cc2)c1-c1nnn[nH]1 [Example 379, 4′-{[(1-cyclopentylpiperidin-4-yl)amino]methyl}-2-(1H-tetrazol-5-yl)biphenyl-3-sulfonamide] |  |  |  |  |  | 4.688 | 200 | 1.563 | 318 | 27.3 |  | IC50 [5, 17]: 639 nM
8 | Nc1nccc2cc(-c3ccc(C(F)(F)F)c(S(N)(=O)=O)c3-c3nnn[nH]3)ccc12 [Example 751, 3-(1-aminoisoquinolin-6-yl)-2-(1H-tetrazol-5-yl)-6-(trifluoromethyl)benzenesulfon-amide] |  |  |  |  |  |  |  |  |  |  |  | Serratia marcescens MITC95 [1, 20]: 3.125 µM; Klebsiella pneumoniae MITC95 [2, 21]: 3.125 µM; Escherichia coli MITC95 [3, 22]: 0.7813 µM; IC50 [4, 23]: 5.63 nM; IC50 ([5]; fluorescence assay with CCF2-FA substrate, read-out: VIM-1 IC50): 0.108 nM; IC50 [6, 24]: 0.962 nM
9 | N[C@]1(c2ccc(-c3ccc(C(F)(F)F)c(S(N)(=O)=O)c3-c3nn[nH]n3)cc2)CCNC1 [Example 547, 3-[4-[(3S)-3-aminopyrrolidin-3-yl]phenyl]-2-(2H-tetrazol-5-yl)-6-(trifluoromethyl)benzenesulfonamide] | 3.125 | 6.25 | 6.25 | 9.14 | 9.32 |  |  |  |  |  | 1.18 | 
10 | Nc1ncc(CCc2ccc(C(F)(F)F)c(S(N)(=O)=O)c2-c2nn[nH]n2)cc1CO [Example 508, 3-(2-(6-Amino-5-(hydroxymethyl)pyridin-3-yl)ethyl)-2-(2H-tetrazol-5-yl)-6-(trifluoromethyl)benzenesulfonamide] | 0.0625 | 3.125 | 0.8359 | 2.37 | 4.55 |  |  |  |  |  | 1.66 | 
11 | NC[C@H]1CC[C@H](c2ccc(C(F)(F)F)c(S(N)(=O)=O)c2-c2nnn[nH]2)CC1 [Example 501, 3-(trans 4-(aminomethyl)cyclohexyl)-2-(1H-tetrazol-5-yl)-6-(trifluoromethyl)benzenesulfonamide] | 1.563 | 1.563 | 1.172 |  | 1.52 |  |  |  |  |  | 0.516 | IC50 [4]: 5.39 nM
12 | Nc1nc2nccc(-c3ccc(C(F)(F)F)c(S(N)(=O)=O)c3-c3nnn[nH]3)c2[nH]1 [Example 570, 3-(2-amino-1H-imidazo[4,5-b]pyridin-7-yl)-2-(1H-tetrazol-5-yl)-6-(trifluoromethyl)benzenesulfonamide] | 6.25 | 6.25 | 3.125 | 4.06 | 0.33 |  |  |  |  |  | 0.49 | 
13 | NCC1(N)CCC(c2ccc(C(F)(F)F)c(S(N)(=O)=O)c2-c2nnn[nH]2)CC1 (stereo not drawn) [Example 497, 3-(4-Amino-4-(aminomethyl)cyclohexyl)-2-(1H-tetrazol-5-yl)-6-(trifluoromethyl)benzenesulfonamide] | 0.3906 | 6.25 | 0.5859 | 25.8 | 3.06 |  |  |  |  |  |  | IC50 [5, 11]: 59.5 nM
14 | NCCN1CCC(c2ccc(-c3cccc(S(N)(=O)=O)c3-c3nnn[nH]3)cc2)CC1 [Example 616, 3-[4-[1-(2-aminoethyl)-4-piperidyl]phenyl]-2-(1H-tetrazol-5-yl)benzenesulfonamide] | 0.5859 | 75 | 0.3906 | 14.4 | 4.37 |  |  |  |  |  | 276 | 
15 | CC(N[C@H]1CC[C@H](c2ccc(C(F)(F)F)c(S(N)(=O)=O)c2-c2nnn[nH]2)CC1)C1CCNCC1 (stereo partly drawn) [Example 683, 3-{4-[(1-piperidin-4-ylethyl)amino]cyclohexyl}-2-(1H-tetrazol-5-yl)-6-(trifluoromethyl)benzene sulfonamide] | 12.5 | 50 | 3.125 | 154 | 31.5 |  |  |  |  |  | 28.1 | 
16 | Nc1nnc(C2CCN(c3ccc(C(F)(F)F)c(S(N)(=O)=O)c3-c3nnn[nH]3)CC2)s1 [Example 764, 3-[4-(5-amino-1,3,4-thiadiazol-2-yl)piperidin-1-yl]-2-(1H-tetrazol-5-yl)-6-(trifluoromethyl) benzenesulfonamide] |  |  |  |  |  |  |  |  |  |  |  | Serratia marcescens MITC95 [1, 20]: 50 µM; Klebsiella pneumoniae MITC95 [2, 21]: >200 µM; Escherichia coli MITC95 [3, 22]: 100 µM; IC50 [4, 23]: 68.7 nM; IC50 ([5]; VIM-1 IC50, fluorescence assay with CCF2-FA substrate): 27.7 nM; IC50 [6, 24]: 273 nM
17 | NS(=O)(=O)c1c(C(F)(F)F)ccc([C@H]2CC[C@H](N[C@H]3CC[C@H]4CCN[C@H]4C3)CC2)c1-c1nnn[nH]1 [Example 679, 3-{4-[(3aS,6S,7aS)-octahydro-1H-indol-6-ylamino]cyclohexyl}-2-(1H-tetrazol-5-yl)-6-(trifluoromethyl)benzene sulfonamide] | 3.125 | 50 | 1.563 | 75.3 | 19.8 |  |  |  |  |  |  | IC50 [5, 11]: 21.2 nM
18 | N=C(N)N1CC(c2ccc(-c3ccc(C(F)(F)F)c(S(N)(=O)=O)c3-c3nn[nH]n3)cc2)C1 [Example 434, 3-(3′-sulfamoyl-2′-(2H-tetrazol-5-yl)-4′-(trifluoromethyl)-[1,1′-biphenyl]-4-yl)azetidine-1-carboximidamide] |  |  |  |  |  | 0.09375 | 0.7656 | 0.543 | 1.85 | 1.78 |  | IC50 [5, 17]: 0.175 nM
